In patent US10100016B2, “Condensed ring derivative, and preparation method, intermediate, pharmaceutical composition and use thereof” (SHANGHAI YINGLI PHARMACEUTICAL CO., LTD., priority 2015, dated 2018):
pIC50: −log10 of the molar value.

target: hURAT1 (Homo sapiens (Human), UniProt Q96S37); test: 14C-uric acid transport inhibition in transfected HEK293/hURAT1 cells; assay type: cell-based; settings: 14C-uric acid uptake, 10 mins incubation, read-out: IC50 value against hURAT1
Description: Human embryonic kidney cells (HEK293) was incubated in DMEM tissue culture medium, at 37° C., under 5% CO2 and 95% air atmosphere. […] Transfected HEK293/hURAT1 cells were used to the test for ^14C-uric acid transport activity.
The uric acid [8-14C] […] The incubating solution was removed after 10 mins incubation, followed by adding 100 μL cold washing buffer, after washing with this buffer for 3 times, the buffer was completely removed from the well.

Sequence of hURAT1 (Q96S37 whole entry): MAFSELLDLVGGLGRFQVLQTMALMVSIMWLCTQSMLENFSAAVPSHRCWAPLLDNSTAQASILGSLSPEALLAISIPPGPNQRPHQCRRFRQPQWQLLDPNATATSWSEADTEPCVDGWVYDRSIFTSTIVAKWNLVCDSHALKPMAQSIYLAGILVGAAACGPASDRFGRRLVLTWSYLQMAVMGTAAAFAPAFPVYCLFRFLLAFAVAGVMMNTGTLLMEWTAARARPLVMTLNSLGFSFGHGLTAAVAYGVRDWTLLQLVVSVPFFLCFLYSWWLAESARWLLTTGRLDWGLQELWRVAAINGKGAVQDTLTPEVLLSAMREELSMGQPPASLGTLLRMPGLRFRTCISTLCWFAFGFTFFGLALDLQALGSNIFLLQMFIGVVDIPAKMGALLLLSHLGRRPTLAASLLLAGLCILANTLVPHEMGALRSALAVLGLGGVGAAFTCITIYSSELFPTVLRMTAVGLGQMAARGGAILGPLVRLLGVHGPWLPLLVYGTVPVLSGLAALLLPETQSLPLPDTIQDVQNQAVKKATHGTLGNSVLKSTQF

| SMILES | pIC50 |
| --- | --- |
| CC(C)(Cc1cc2c(-c3ccc(C#N)c4ccccc34)cncc2s1)C(=O)O [Compound 47, 3-[4-(4-Cyanonaphthalen-1-yl)thieno[2,3-c]pyridin-2-yl]-2,2-dimethyl propionic Acid] | 7.74 |
| CC(C)(Sc1ccc2cncc(-c3cccc4c(C#N)cccc34)c2c1)C(=O)O [Compound 10, 2{[4-(5-Cyanonaphthalen-1-yl)isoquinolin-6-yl]thio}-2-methylpropionic Acid] | 7.72 |
| CC(C)(Sc1ccncc1-c1ccc(C#N)c2ccccc12)C(=O)O [Verinurad (RDEA3170), reference compound] | 6.95 |
| CC(C)(Sc1ccc2cncc(-c3ccc(C#N)c(Cl)c3)c2c1)C(=O)O [Compound 22, 2-{[4-(3-Chloro-4-cyanophenyl)isoquinolin-6-yl]thio}-2-methyl propionic Acid] | 7.26 |
| Cc1nc(Cc2c(Cl)cccc2Cl)n2cc(CCC(=O)O)ccc12 [Compound 25, 3-{3-[(2,6-dichlorophenyl)methyl]-1-methylimidazole[1,5-a]pyridine-6-yl}propionic Acid] | 6.54 |
| CC(C)(Sc1cc(F)c2cncc(-c3ccc(C#N)c4ccccc34)c2c1)C(=O)O [Compound 9, 2{[4-(4-Cyanonaphthalen-1-yl)-8-fluoroisoquinolin-6-yl]thio}-2-methylpropionic Acid] | 6.90 |
| N#Cc1ccc(-c2cncc3cc(CCC(=O)O)sc23)c2ccccc12 [Compound 30, 3-[7-(4-Cyanonaphthalen-1-yl)thieno[3,2-c]pyridin-2-yl]propionic acid] | 7.06 |
| CC(C)(Cc1ccc2cncc(-c3ccc(C#N)cc3)c2c1)C(=O)O [Compound 51, 3-[4-(4-Cyanophenyl)isoquinolin-6-yl]-2,2-dimethyl propionic Acid] | 7.72 |
| CC(CC(=O)O)c1cc2cncc(-c3ccc(C#N)c4ccccc34)c2s1 (racemic) [Compound 52, 3-[7-(4-Cyanonaphthalen-1-yl)thieno[3,2-c]pyridine-2-yl]-butyric Acid] | 7.43 |
| N#Cc1ccc(-c2cncc3ccc(CC(=O)O)cc23)c2ccccc12 [Compound 3, 2-[4-(4-Cyanonaphthalen-1-yl)isoquinolin-6-yl]acetic Acid] | 6.49 |
| CC(C)(Cc1cc2c(-c3ccc(C#N)c4ccccc34)cccc2s1)C(=O)O [Compound 38, 3-[4-(4-Cyanonaphthalen-1-yl)-1-benzothiophen-2-yl]-2,2-dimethyl propionic Acid] | 6.68 |
| N#Cc1ccc(-c2cncc3ccc(C(=O)O)cc23)cc1 [Compound 1, 4-(4-cyanophenyl)isoquinoline-6-carboxylic Acid] | 5.60 |
| CC(C)(Sc1ccc2cncc(-c3ccc(C#N)cc3F)c2c1)C(=O)O [Compound 8, 2{[4-(4-Cyano-2-fluorophenyl)isoquinolin-6-yl]thio}-2-methylpropionic Acid] | 7.24 |
| CC(C)(Oc1ccc2cncc(-c3ccc(C#N)cc3)c2c1)C(=O)O [Compound 6, 2{[4-(4-Cyanophenyl)isoquinolin-6-yl]oxy}-2-methylpropionic Acid] | 6.67 |
| N#Cc1ccc(-c2cncc3ccc(CCC(=O)O)cc23)cc1 [Compound 2, 3-[4-(4-Cyanophenyl)isoquinolin-6-yl]propionic Acid] | 6.79 |
| CC(C)(Sc1ccc2cncc(-c3ccc(C#N)c4ccc(F)cc34)c2c1)C(=O)O [Compound 12, 2-{[4-(4-Cyano-7-fluoronaphthalen-1-yl)isoquinolin-6-yl]thio}-2-methyl propionic Acid] | 7.15 |
| N#Cc1ccc(-c2cncc3ccc(SC4(C(=O)O)CCC4)cc23)c2ccccc12 [Compound 24, 1-{[4-(4-cyanonaphthalen-1-yl)isoquinolin-6-yl]thio}cyclobutane-1-carboxylic Acid] | 7.74 |
| CC(Sc1ccc2cncc(-c3ccc(C#N)c4ccccc34)c2c1)C(=O)O (centres unmarked) [Compound 21, 2-{[4-(4-Cyanonaphthalen-1-yl)isoquinolin-6-yl]thio}propionic Acid] | 7.00 |
| CC(CC(=O)O)c1ccc2cncc(-c3ccc(C#N)c4ccccc34)c2c1 (centres unmarked) [Compound 15, 3-[4-(4-Cyanonaphthalen-1-yl)isoquinolin-6-yl]butyric Acid] | 7.62 |

| SMILES | pIC50 |
| --- | --- |
| CC(O)(CC(=O)O)c1cc2c(-c3ccc(C#N)c4ccccc34)cncc2s1 (centres unmarked) [Compound 41, 3-[4-(4-Cyanonaphthalen-1-yl)thieno[2,3-c]pyridin-2-yl]-3-hydroxyl butyric Acid] | 6.03 |
| N#Cc1ccc(-c2cncc3cc(CC(=O)O)sc23)cc1 [Compound 32, 2-[7-(4-Cyanophenyl)thieno[3,2-c]pyridin-2-yl]acetic Acid] | 5.27 |
| N#Cc1ccc(-c2cncc3cc(CC(=O)O)sc23)c2ccccc12 [Compound 31, 2-[7-(4-Cyanonaphthalen-1-yl)thieno[3,2-c]pyridin-2-yl]acetic Acid] | 5.47 |
| CC(C)(Sc1ccc2nccn2c1-c1ccc(C#N)cc1)C(=O)O [Compound 27, 2-{[5-(4-Cyanophenyl)imidazo[1,2-a]pyridin-6-yl]thio}-2-methyl propionic Acid] | 5.76 |
| CC(C)(Cc1cc2c(Cc3c(Cl)cccc3Cl)cccc2s1)C(=O)O [Compound 40, 3-{4-[(2,6-Dichlorophenyl)methyl]-1-benzothiophen-2-yl]-2,2-dimethyl propionic Acid] | 5.46 |
| CC(Cc1ccc2cncc(-c3ccc(C#N)c4ccccc34)c2c1)C(=O)O (centres unmarked) [Compound 16, 3-[4-(4-Cyanonaphthalen-1-yl)isoquinolin-6-yl]-2-methyl propionic acid] | 7.82 |
| CC(C)(Cc1cc2cncc(-c3ccc(C#N)cc3)c2s1)C(=O)O [Compound 33, 3-[7-(4-Cyanophenyl)thieno[3,2-c]pyridin-2-yl]-2,2-dimethylpropionic Acid] | 7.38 |
| N#Cc1ccc(-c2cncc3ccc(/C=C/C(=O)O)cc23)c2ccccc12 [Compound 14, (2E)-3-[4-(4-Cyanonaphthalen-1-yl)isoquinolin-6-yl]acrylic Acid] | 6.41 |
| CC(C)(C(=O)O)c1ccc2cncc(-c3ccc(C#N)c4ccccc34)c2c1 [Compound 49, 2-[4-(4-Cyanonaphthalen-1-yl)isoquinolin-6-yl]-2-methyl propionic acid] | 6.94 |
| CC(C)(Sc1ccc2cnnc(-c3ccc(C#N)c4ccccc34)c2c1)C(=O)O [Compound 50, 2-{[4-(4-Cyanonaphthalen-1-yl)phthalazin-6-yl]thio}-2-methyl propionic Acid] | 6.01 |
| CC(C)(Sc1ccc2cncc(-c3ccc(C#N)cc3)c2c1)C(=O)O [Compound 4] | 7.82 |
| CC(C)(Sc1ccc2cncc(-c3ccc(C#N)cc3Cl)c2c1)C(=O)O [Compound 23, 2-{[4-(2-Chloro-4-cyanophenyl)isoquinolin-6-yl]thio}-2-methyl propionic Acid] | 7.74 |
| CC(C)(Cc1cc2cncc(-c3ccc(C#N)c4ccccc34)c2s1)C(=O)O [Compound 34, 3-[7-(4-Cyanonaphthalen-1-yl)thieno[3,2-c]pyridin-2-yl]-2,2-dimethylpropionic Acid] | 6.86 |
| CC(CC(=O)O)c1cc2c(-c3ccc(C#N)c4ccccc34)cncc2s1 (racemic) [Compound 42, 3-[4-(4-Cyanonaphthalen-1-yl)thieno[2,3-c]pyridin-2-yl] butyric Acid] | 7.62 |
| CC(CC(=O)O)c1ccc2cncc(-c3ccc(C#N)cc3)c2c1 (centres unmarked) [Compound 13, 3-[4-(4-Cyanophenyl)isoquinolin-6-yl]butyric Acid] | 6.72 |
| Cc1nn(Cc2c(Cl)cccc2Cl)c2cc(SC(C)(C)C(=O)O)ccc12 [Compound 26, 2-({1-[(2,6-dichlorophenyl)methyl]-3-methyl-1H-indazol-6-yl}thio)-2-methyl propionic Acid] | 6.92 |
| CC(C)(Sc1ccc2cncc(-c3ccc(C#N)c4c3OCCO4)c2c1)C(=O)O [Compound 11, 2-{[4-(8-Cyano-2,3-dihydro-1,4-benzodioxan-5-yl)isoquinolin-6-yl]thio}-2-methylpropionic Acid] | 7.21 |
| CC(C)(Cc1ccc2cncc(-c3ccc(C#N)c4ccccc34)c2c1)C(=O)O [Compound 17, 3-[4-(4-Cyanonaphthalen-1-yl)isoquinolin-6-yl]-2,2-dimethyl propionic Acid] | 7.92 |
| N#Cc1ccc(-c2cncc3cc(C(=O)O)sc23)c2ccccc12 [Compound 29, 7-(4-Cyanonaphthalen-1-yl)thieno[3,2-c]pyridin-2-formic Acid] | 5.54 |
